Results on 4 compounds are retold here after publication PMC5222924, “Synergistic interplay of Gβγ and phosphatidylinositol 4,5-bisphosphate dictates Kv7.4 channel activity” (Pflugers Archiv, 2016).

The target in assay [1] is T1, Kv7.4 (Homo sapiens, UniProt P56696).
T1 construct: gene KCNQ4; full-length channel, homomer, stably expressed in HEK293 cells (line a gift from the University of Copenhagen)
T1 sequence (P56696 1-695): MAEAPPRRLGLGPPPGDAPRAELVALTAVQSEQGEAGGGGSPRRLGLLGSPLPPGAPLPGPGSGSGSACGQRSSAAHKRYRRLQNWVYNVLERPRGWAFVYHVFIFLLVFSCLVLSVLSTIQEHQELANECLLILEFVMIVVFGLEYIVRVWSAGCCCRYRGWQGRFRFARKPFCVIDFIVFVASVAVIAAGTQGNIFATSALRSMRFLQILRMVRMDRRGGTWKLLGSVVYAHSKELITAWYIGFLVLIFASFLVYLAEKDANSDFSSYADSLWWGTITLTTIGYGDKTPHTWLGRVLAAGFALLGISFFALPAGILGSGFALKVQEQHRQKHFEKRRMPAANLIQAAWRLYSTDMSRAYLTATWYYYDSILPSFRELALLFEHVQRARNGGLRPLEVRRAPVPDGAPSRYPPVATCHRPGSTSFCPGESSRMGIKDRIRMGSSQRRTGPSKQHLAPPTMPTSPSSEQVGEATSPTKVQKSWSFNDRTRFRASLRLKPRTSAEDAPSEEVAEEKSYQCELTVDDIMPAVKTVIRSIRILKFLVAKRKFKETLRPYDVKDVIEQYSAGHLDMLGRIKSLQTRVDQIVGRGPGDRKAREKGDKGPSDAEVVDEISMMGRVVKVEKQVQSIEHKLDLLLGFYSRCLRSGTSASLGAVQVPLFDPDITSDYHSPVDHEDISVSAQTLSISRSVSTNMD
The assay is described as follows: whole-cell patch clamp. It counts as cell-based. As to conditions: room temperature; opener, concentration not given; common approximate value for three openers. (In general: In patch-clamp work, channel activity is measured electrically.)

In assay [2] the target is T1, Kv7.4. The assay is described as follows: inside-out patch clamp, single-channel NPo. Format: cell-based. The following applies: room temperature; activator applied to excised patch, no added Gβγ; unreliable: saturation not reached, sigmoidal fit of pooled patches.
For another assay, the target named is Kv7.4 channel (UniProt P56696).

For the compound `CCOC(=O)Nc1ccc(NCc2ccc(F)cc2)cc1N` [Retigabine], the “% increase of current at +20 mV” value at Kv7.4 [1] is on record as ~ 40%. Consider PIP2, for which the half-maximal stimulation on Kv7.4 [2] was ~ 117 μM. In the assay with Kv7.4 channel, “G-protein βγ subunits from bovine brain (from UniProt P62871 1-340; P63212 1-71) (complex)” returned a half maximal stimulation of Kv7.4 channel activity, inside-out excised patches, bath application of Gβγ (0.4–50 ng/ml) of 8.1 ng/mL and an increase of whole-cell Kv7.4 current amplitude within 5 min of rupture, intracellular perfusion of active Gβγ (250 ng/ml), control cells of 70%. Turning to NS15370, the “% increase of current at +20 mV” value at Kv7.4 [1] is given as ~ 40%.
